“Also recorded” adds a separate entry of the source.
Assays:
Format in all cases: in vivo
[1] = test system: Npc1^nih Npc1^−/− mouse liver; assay: qPCR of cathepsins, inflammation and fibrosis markers in liver after HPβCD
Excerpt: (§1) In mice, formalin fixed paraffin embedded tissue was sectioned (4-5 μm) and total RNA was isolated using RNeasy FFPE kit (Qiagen, Germantown, Md., USA) which included treatment with DNAse. Frozen human liver and cerebellum from 4 NPC patients and 4 age-, gender- and ethnicity-matched controls were obtained from the NICHD Brain and Tissue Bank for Developmental Disorders (University of Maryland, Baltimore, Md., USA), as approved by the Institutional Review Board (IRB), of the University of Notre Dame, Ind., USA (FWA 00002462). Total RNA was isolated using RNeasy kit (Qiagen, Germantown, Md., USA). Eluted RNA was further digested with RNase free DNaseI and re-purified using RNeasy column. The quality of RNA was checked using Bioanalyzer chip (Agilent Technologies, Santa Clara, Calif., USA) and quantity was determined using Nanodrop 2000 (Thermo Fisher Scientific, Waltham, Mass., USA). Quantitative PCR (qPCR) was performed using Power SYBR Green RNA-to-CT 1-Step Kit and an ABI Prism 7500 Fast real-time PCR system (Applied Biosystems, Grand Island, USA). Reaction was set in 20 μl using 100 nM primers and 5-100 ng total RNA as template. The thermal cycling parameters were as follows: step 1, 48° C. for 30 min; step 2, 95° C. for 10 min; step 3, 95° C. for 15 sec ° C.; step 4, 60° C. for 15 sec. Step 3-4 was repeated for 40 cycles followed by melt curve analysis. Specific amplification was validated by analysis of template titration, melt curves and agarose gel electrophoresis. In both mouse and human tissues, the mRNA levels were normalized to the housekeeping gene, Gapdh (Glyceraldehyde 3-phosphate dehydrogenase). Fold change was calculated by relative standard curve method after correcting PCR efficiency. In mice, the fold change in expression levels of different genes in Npc1^−/− was calculated relative to average levels of expression in Npc1^+/− mice. In human tissues, fold change in transcript expression in NPC liver and cerebellum was expressed relative to average expression in age-matched controls. Starting at P21 and once a week thereafter, Npc1^nih and Npc1^nmf164 mice were injected i.p with 20% 2-hydroxypropyl-beta-cyclodextrin (HPβCD, 4000 mg/Kg) prepared in 0.2% DMSO and 0.9% saline. Control mice received 0.2% DMSO in 0.9% saline. Blood was collected either via cheek bleed or terminal heart bleed from mice in EDTA tubes (BD Biosciences, San Jose, Calif., USA). Plasma was separated by centrifugation at 2500 rpm for 15 min and stored at −70° C. until used.

[2] = test system: Npc1^nih Npc1^−/− mouse brain; assay: qPCR of cathepsins and inflammatory markers in brain after HPβCD
Excerpt: as §1

[3] = test system: Npc1^nih Npc1^−/− mouse brain; assay: Immunohistochemistry of brain sections after HPβCD; conditions: immunofluorescence
Experimental: Mice were sacrificed by asphyxiation using CO2. The circulatory bed was washed with PBS (pH 7.4), and subsequently perfused with 10% neutral buffered formalin (˜4% formaldehyde). The organs (brain and liver) were surgically harvested and stored in 4% formaldehyde at room temperature (RT) until transfer to paraffin. Paraffin-embedded tissue sections (3-4 μm) were dewaxed in xylene and alcohol. For Ly-6G and calbindin staining, antigen retrieval was done by pre-incubating deparaffinized samples with 0.05% proteinase K (Dako, Germany) in 50 mM Tris-HCl (pH 7.5) for 8 min at RT. CTSS and lysozyme were retrieved by boiling the sections in acidic condition for 30 min. Sections were incubated with anti-Ly-6G (20 μg/ml), anti-calbindin (1:1000), anti-CTSS (20 μg/ml) or anti-lysozyme (1:20) overnight at 4° C. Reagents were prepared according to the manufacturer's instructions (Vector laboratories). The staining protocol was followed as described previously (19). The secondary antibody for neutrophil staining was biotinylated rabbit anti-rat IgG (mouse absorbed, Vector Laboratories) and for Purkinje neurons was biotinylated horse anti-mouse IgG (Vector Laboratories).
For fluorescence microscopy, FITC-conjugated IgG (MP Biomedicals, Solon, Ohio, USA) was the secondary antibody. Sections stained only with secondary antibodies served as controls. Brightfield images were acquired on a Nikon Olympus microscope, using a Nikon digital DS-Fi1-U2 camera controlled by NIS-Elements F3.0 Nikon software (all from Nikon Instruments INC, Tokyo, Japan). Images were visualized with A10 PL 10×/0.25, or a DPIan Apo 40×/1.00 oil-immersion or a DPIan Apo 100×/1.30 oil-immersion objective lens (Nikon). Fluorescence microscopy and digital image collection were performed using an Olympus IX inverted fluorescence microscope and a Photometrix cooled CCD camera (CH350/LCCD) driven by DeltaVision software from Applied Precision (Seattle, Wash., USA). […] ImageJ (National Institute of Health, Bethesda, Md., USA) software was used to process and quantify the fluorescence intensity of CTSS and lysozyme. […]

In the case of `CC(O)COC[C@H]1O[C@@H]2O[C@H]3[C@H](O)[C@@H](O)[C@@H](O[C@H]4[C@H](O)[C@@H](O)[C@@H](O[C@H]5[C@H](O)[C@@H](O)[C@@H](O[C@H]6[C@H](O)[C@@H](O)[C@@H](O[C@H]7[C@H](O)[C@@H](O)[C@@H](O[C@H]8[C@H](O)[C@@H](O)[C@@H](O[C@H]1[C@H](O)[C@H]2O)O[C@@H]8COCC(C)O)O[C@@H]7COCC(C)O)O[C@@H]6COCC(C)O)O[C@@H]5COCC(C)O)O[C@@H]4COCC(C)O)O[C@@H]3COCC(C)O` (stereo partly drawn) [HPβCD, 2-hydroxypropyl-beta-cyclodextrin], the “expression of Cd68 in liver” value ([1]; Npc1^−/− mice) is reported as “reduced to normal levels”, the “expression of Col1a in liver” value ([1]; Npc1^−/− mice) is reported as “anomalous reduction” and the “expression of Itgax in liver” value ([1]; Npc1^−/− mice) is reported as “reduced to normal levels”. The “Lyz1 expression in liver” value ([1]; Npc1^−/− mice, late stages) was “abrogated Lyz1 over expression; also recorded: restored lysozyme transcript and protein to normal levels”, the “expression of Ctss in liver” value ([1]; late stage Npc1^−/− mice) was “markedly reduced and equivalent to control mice” and the “Lyz1 expression in brain, fold elevation” value ([2]; HPβCD-treated Npc1^−/−, late stages, untreated ~81-fold) was ~28 fold. For the same compound, the “Gfap transcript in brain” value ([2]; HPβCD-treated Npc1^−/−, untreated ~9-fold) was “slightly reduced”, the “Cd68 transcript in brain relative to Npc1^+/− mice” value ([2]; HPβCD-treated Npc1^−/−, untreated ~24-fold) was ~6 fold and the “Mip-1α transcripts in brain, fold increase” value ([2]; HPβCD-treated Npc1^−/−, untreated ~44-fold) was ~27 fold. For the same compound, the “transcripts of neuron specific 24-hydroxylase” value ([2]; NPC mouse brain, qPCR) was “no effect”, the “expression of Ctsb in brain” value ([2]; Npc1^−/− mice, qPCR) was “returned to normal levels” and the “expression of Ctsd in brain” value ([2]; Npc1^−/− mice, qPCR) was “partial reduction”. The “expression of Ctss in brain” value ([2]; Npc1^−/− mice, qPCR) was “partial reduction”, the “lysozyme levels in the cerebellum (white mater region)” value ([3]; FIG. 19E-F) was “no significant effect” and the “reduction of lysozyme in molecular layer of the cerebellum” value ([3]; FIG. 19I-K) was ~25%. The “reduction of CTSS levels in hippocampal neurons” value ([3]; ImageJ quantification) was ~20%.

Reference: patent US10597696B2, “Detection of Niemann-Pick disease comprising detection of lysozyme and cathepsins” (UNIVERSITY OF NOTRE DAME DU LAC, priority 2013, dated 2020)
